Some results are limits rather than exact numbers.

The source of these data is ChEMBL document CHEMBL1268898, “Metallocene catalyzed synthesis of fungistatic vicinal aminoalcohols under solvent free conditions” (2010).

One assay deals with Botrytis cinerea. In words: Fungistatic activity against Botrytis cinerea assessed as inhibition of fungal growth at 100 mg/L relative to control. The conditions noted are these: read-out: GI. The class given is functional.
Assay [1] has as its system Colletotrichum gloeosporioides. In words: Fungistatic activity against Colletotrichum gloeosporioides assessed as inhibition of fungal growth at 100 mg/L relative to control. The class given is functional. To be noted: read-out: GI.

Regarding `Cc1ccc(NC(CO)c2ccccc2)cc1` (stereo unspecified), the inhibition of growth at 100 µg/mL was determined as 63% with Botrytis cinerea and 40% in assay [1].

On to `O=[N+]([O-])c1ccc(NC(CO)c2ccccc2)cc1` (stereo unspecified), for which the inhibition of growth at 100 µg/mL in the assay on Botrytis cinerea was found to be 69%; in assay [1], 55%.

`Cc1ccc(NCC(C)(C)O)cc1`: the inhibition of growth at 100 µg/mL was 62% with Botrytis cinerea and under 30% in assay [1].

On to `Cc1ccc(NCC(O)COc2ccccc2)cc1` (stereo unspecified), for which the values for the inhibition of growth at 100 µg/mL (in the assay with Botrytis cinerea; in assay [1]) were 87% and 72%, respectively.

On to `Cc1ccc(N(CC(O)COc2ccccc2)CC(O)COc2ccccc2)cc1` (stereo unspecified), for which the inhibition of growth at 100 µg/mL was 53% in the assay with Botrytis cinerea and under 30% in assay [1].

Take `CN(C)S(=O)(=O)N(SC(F)(Cl)Cl)c1ccccc1` [DICHLOFLUANID]: the inhibition of growth at 100 µg/mL with Botrytis cinerea was over 95%.
